According to patent US9505724B2, “4-amino substituted condensed pyrimidine compounds as PDE4 inhibitors” (GRÜNENTHAL GMBH, priority 2013, dated 2016):
Counter-ions that a name gives are not always drawn. Like-named read-outs stand apart in the source and are kept apart here.

Experiments:
human PDE4B1 = molecular target: T1, human PDE4B1 (Homo sapiens, UniProt Q07343); assay: cAMP HTRF assay to determine the activity of hPDE4B1; type: biochemical; settings: read-out: PDE4B IC50
T1 construct: host or cells: Sf9 cells
Protocol: 1. Determination of the PDE4B IC50 Values with a cAMP HRTF® Assay to Determine the Activity of hPDE4B1
The inhibiting effect of the compounds on the enzyme activity of human PDE4B1 is measured by the quantification of 5′-AMP, which is formed from 3′,5′-adenosine monophosphate (cAMP). Human recombinant enzyme, expressed in Sf9 cells, and the HTRF (homogeneous time-resolved fluorescence) detection method are used in the assay.
The test compound or water (control) is mixed with the human recombinant PDE4B1 enzyme (4.8 U) in a buffer consisting of 44.4 mM tris-HCl, 5.28 mM MgCl2, 2.64 mM DTT and 0.044% Tween 20 (pH 7.8). After adding the cAMP enzyme substrate (final concentration 40 nM) the mixture is incubated for 30 minutes at room temperature. Then a fluorescence acceptor (Dye2 marked with cAMP), a fluorescence donor (anti-cAMP antibody marked with a europium cryptate) and the non-specific phosphodiesterase inhibitor IBMX (3-isobutyl-1-methylxanthine; final concentration 1 mM) are added. After 60 minutes the fluorescence transfer, which correlates with the amount of remaining cAMP, is measured with a microplate reader (Rubystar, BMG) at λex=337 nm, λem=620 nm and λεm=665 nm. The enzyme activity is calculated from the quotient formed from the measured signal at 665 nm and that at 620 nm. The result is expressed as the percentage inhibition of enzyme activity of the control (without PDE4 inhibitor) (literature: N. Saldou et al., Comparison of recombinant human PDE4 isoforms: interaction with substrate and inhibitors, Cell. Signal. Vol. 10, No. 6, 427-440, 1998). The enzyme is omitted for measurement of the basal control. The averaged results are set out in Table 5.

human recombinant PDE4D2 = human recombinant PDE4D2 (Homo sapiens, UniProt Q08499); assay: cAMP HTRF assay to determine the activity of hPDE4D2; type: biochemical
Protocol: 2. Determination of the PDE4D-IC50 Values with a cAMP HRTF® Assay to Determine the Activity of hPDE4D2
The further procedure and evaluation are performed in exactly the same way as in the above description of the cAMP HTRF® assay for PDE4B.

[1] = human recombinant PDE4B1, cAMP 40 nM, averaged results (Table 5)
[2] = comparative experiments, re-synthesised prior-art compounds (Table 6)

T1 sequence (Q07343 whole entry): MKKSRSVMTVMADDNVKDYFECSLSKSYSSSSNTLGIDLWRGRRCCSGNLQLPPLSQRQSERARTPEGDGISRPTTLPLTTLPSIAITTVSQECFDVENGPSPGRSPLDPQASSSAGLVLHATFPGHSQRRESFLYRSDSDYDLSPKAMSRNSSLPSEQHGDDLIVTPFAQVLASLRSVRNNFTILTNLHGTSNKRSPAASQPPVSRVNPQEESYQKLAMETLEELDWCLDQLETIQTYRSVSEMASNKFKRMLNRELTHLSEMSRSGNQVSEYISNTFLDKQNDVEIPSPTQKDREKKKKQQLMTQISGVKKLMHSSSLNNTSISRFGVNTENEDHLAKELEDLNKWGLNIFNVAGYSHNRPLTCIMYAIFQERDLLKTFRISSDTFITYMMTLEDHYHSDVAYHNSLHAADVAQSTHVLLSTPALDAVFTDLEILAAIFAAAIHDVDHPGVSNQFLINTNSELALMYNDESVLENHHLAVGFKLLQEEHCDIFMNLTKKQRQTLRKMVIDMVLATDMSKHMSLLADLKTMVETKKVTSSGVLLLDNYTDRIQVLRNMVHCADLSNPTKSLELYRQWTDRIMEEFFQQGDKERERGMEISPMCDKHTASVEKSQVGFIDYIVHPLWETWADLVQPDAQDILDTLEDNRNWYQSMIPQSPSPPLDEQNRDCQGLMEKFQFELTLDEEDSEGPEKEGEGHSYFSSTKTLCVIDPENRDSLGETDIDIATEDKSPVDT
human recombinant PDE4D2, sequence (Q08499 303-809): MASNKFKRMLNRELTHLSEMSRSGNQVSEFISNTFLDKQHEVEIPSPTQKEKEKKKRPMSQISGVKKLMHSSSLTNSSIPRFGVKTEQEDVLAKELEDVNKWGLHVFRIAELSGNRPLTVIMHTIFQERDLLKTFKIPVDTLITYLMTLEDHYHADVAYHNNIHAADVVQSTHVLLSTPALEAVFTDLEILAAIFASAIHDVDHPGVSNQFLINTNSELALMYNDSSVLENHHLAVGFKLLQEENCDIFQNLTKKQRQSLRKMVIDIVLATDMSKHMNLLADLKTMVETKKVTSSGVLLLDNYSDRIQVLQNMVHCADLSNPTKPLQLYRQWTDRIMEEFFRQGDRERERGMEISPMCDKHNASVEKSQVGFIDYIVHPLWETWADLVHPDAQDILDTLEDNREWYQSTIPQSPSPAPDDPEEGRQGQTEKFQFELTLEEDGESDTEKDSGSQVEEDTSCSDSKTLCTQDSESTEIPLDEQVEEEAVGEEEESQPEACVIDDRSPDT

Row | IC50 (human PDE4B1; [1]) [nM] | SMILES | further results
1 | 660 | O=C(O)Cc1ccc(Nc2nc(-c3ccc(Br)cc3)nc3c2CCC3)cc1 [Compound 1, 2-(4-(2-(4-Bromophenyl)-6,7-dihydro-5H-cyclopenta[d]pyrimidin-4-ylamino)phenyl)acetic acid] | –
2 | 190 | O=C(O)Cc1ccc(Nc2nc(-c3ccc(F)c(F)c3)nc3c2CCC3)cc1 [Compound 2, 2-(4-(2-(3,4-Difluorophenyl)-6,7-dihydro-5H-cyclopenta[d]pyrimidin-4-ylamino)phenyl)acetic acid] | –
3 | 740 | O=C(O)Cc1ccc(Nc2nc(-c3ccc4occc4c3)nc3c2CCC3)cc1 [Compound 2-1, 2-(4-(2-(Benzofuran-5-yl)-6,7-dihydro-5H-cyclopenta[d]pyrimidin-4-ylamino)phenyl)acetic acid] | –
4 | 120 | COc1ccc(-c2nc3c(c(Nc4ccc(CC(=O)O)cc4)n2)CCC3)cc1F [Compound 3, 2-(4-(2-(3-Fluoro-4-methoxyphenyl)-6,7-dihydro-5H-cyclopenta[d]pyrimidin-4-ylamino)phenyl)acetic acid] | –
5 | 70 | COc1ccc(-c2nc3c(c(Nc4ccc(CC(=O)O)cc4)n2)CCC3)cc1Cl [Compound 4, 2-(4-(2-(3-Chloro-4-methoxyphenyl)-6,7-dihydro-5H-cyclopenta[d]pyrimidin-4-ylamino)phenyl)acetic acid] | –
6 | 490 | O=C(O)Cc1ccc(Nc2nc(-c3ccc(OC(F)F)cc3)nc3c2CCC3)cc1 [Compound 5, 2-(4-(2-(4-(Difluoromethoxy)phenyl)-6,7-dihydro-5H-cyclopenta[d]pyrimidin-4-ylamino)phenyl)acetic acid] | –
7 | 3100 | O=C(O)Cc1ccc(Nc2nc(-c3ccc(OC(F)(F)F)cc3)nc3c2CCC3)cc1 [Compound 6, 2-(4-(2-(4-(Trifluoromethoxy)phenyl)-6,7-dihydro-5H-cyclopenta[a]pyrimidin-4-ylamino)phenyl)acetic acid] | –
8 | 600 | CCOc1ccc(-c2nc3c(c(Nc4ccc(CC(=O)O)cc4)n2)CCC3)cc1 [Compound 7, 2-(4-(2-(4-Ethoxyphenyl)-6,7-dihydro-5H-cyclopenta[d]pyrimidin-4-ylamino)phenyl)acetic acid] | –
9 | 300 | O=C(O)Cc1ccc(Nc2nc(-c3cccc(Cl)c3)nc3c2CCC3)cc1 [Compound 10, 2-(4-(2-(3-Chlorophenyl)-6,7-dihydro-5H-cyclopenta[d]pyrimidin-4-ylamino)phenyl)acetic acid] | –
10 | 640 | O=C(O)c1ccc(Nc2nc(-c3cccc(Cl)c3)nc3c2CCC3)cc1 [Compound 11, 4-(2-(3-Chlorophenyl)-6,7-dihydro-5H-cyclopenta[d]pyrimidin-4-ylamino)benzoic acid] | –
11 | 550 | O=C(O)Cc1ccc(Nc2nc(-c3cccc(Cl)c3)nc3c2CCCC3)cc1 [Compound 12, 2-(4-(2-(3-Chlorophenyl)-5,6,7,8-tetrahydroquinazolin-4-ylamino)phenyl)acetic acid] | –
12 | 210 | COc1ccc(-c2nc3c(c(Nc4ccc(C(=O)O)cc4)n2)CCC3)cc1F [Compound 13, 4-(2-(3-Fluoro-4-Methoxyphenyl)-6,7-Dihydro-5H-Cyclopenta[d]pyrimidin-4-ylamino)benzoic acid] | melting point: > 260 °C
13 | 140 | COc1ccc(-c2nc3c(c(Nc4ccc(C(=O)O)cc4)n2)CCC3)cc1Cl [Compound 14, 4-(2-(3-Chloro-4-methoxyphenyl)-6,7-dihydro-5H-cyclopenta[d]pyrimidin-4-ylamino)benzoic acid] | melting point: > 260 °C
14 | 390 | O=C(O)c1ccc(Nc2nc(-c3ccc(F)c(F)c3)nc3c2CCC3)cc1 [Compound 15, 4-(2-(3,4-Difluorophenyl)-6,7-dihydro-5H-cyclopenta[d]pyrimidin-4-ylamino)benzoic acid] | melting point: > 260 °C
15 | 690 | O=C(O)Cc1ccc(Nc2nc(-c3ccccc3)nc3c2CCC3)cc1 [Compound 16, 2-(4-(2-Phenyl-6,7-dihydro-5H-cyclopenta[d]pyrimidin-4-ylamino)phenyl)acetic acid] | –
16 | 210 | O=C(O)Cc1ccc(Nc2nc(-c3cccc(F)c3)nc3c2CCC3)cc1 [Compound 17, 2-(4-(2-(3-Fluorophenyl)-6,7-dihydro-5H-cyclopenta[d]pyrimidin-4-ylamino)phenyl)acetic acid] | –
17 | 220 | O=C(O)Cc1ccc(Nc2nc(-c3cccc(Br)c3)nc3c2CCC3)cc1 [Compound 18, 2-(4-(2-(3-Bromophenyl)-6,7-dihydro-5H-cyclopenta[d]pyrimidin-4-ylamino)phenyl)acetic acid] | –
18 | 2140 | O=C(O)c1ccc(Nc2nc(-c3cccc(Cl)c3)nc3c2CCCC3)cc1 [Compound 19, 4-(2-(3-Chlorophenyl)-5,6,7,8-tetrahydroquinazoline-4-ylamino)benzoic acid] | –
19 | – | C=CCc1c(C)nc(-c2ccc(OC)cc2)nc1Nc1ccc(CC(=O)O)cc1 [Compound S1, reference compound] | IC50 (human recombinant PDE4D2; comparative experiments, re-synthesised prior-art compounds (Table 6), read-out: PDE4D IC50): > 10000 nM; IC50 (human PDE4B1; [2]): 3600 nM
20 | – | C=CCc1c(C)nc(-c2ccccc2)nc1Nc1ccc(C(=O)O)cc1 [Compound S2, reference compound] | IC50 (human recombinant PDE4D2): 1300 nM; IC50 (human PDE4B1; [2]): 1100 nM

Row | SMILES | IC50 (human PDE4B1; [1]) [nM] | further results
21 | COc1ccc(-c2nc3c(c(Nc4ccc(CC(=O)O)cc4)n2)CCC3)cc1 [Compound 8, 2-(4-(2-(4-Methoxyphenyl)-6,7-dihydro-5H-cyclopenta[d]pyrimidin-4-ylamino)phenyl)acetic acid as 2,2,2-trifluoroacetic acid addition salt] | 380 | –
22 | O=C(O)Cc1ccc(Nc2nc(-c3ccc(Cl)cc3)nc3c2CCC3)cc1 [Compound 9, 2-(4-(2-(4-Chlorophenol)-6,7-dihydro-5H-cyclopenta[d]pyrimidin-4-ylamino)phenyl)acetic acid as 2,2,2-trifluoroacetic acid addition salt] | 880 | –
